Experimental data taken from US11369605B2, “Optically active azabicyclo ring derivative” (priority 2018, dated 2022).
“Also recorded” adds a separate entry of the source.

Key:
RS4; 11 cells = test: Test 2: inhibition of cell proliferation, RS4; 11; assay type: cell-based; details: for cell proliferation inhibition activity (in words): summary of Test 2 (RS4; 11 and MOLM-13)
Description: (§1) Test for Evaluating the Inhibition of Cell Proliferation RS4; 11 cells were obtained from American Type Culture Collection (ATCC). […] MOLM-13 cells were separately obtained from DSMZ (Deutsche Sammlung von Mikroorganismen und Zeilkulturen GmbH). […] The cells were plated to a 96-well plate in 2000 cells/well, each test compound was added thereto to adjust the final concentration of DMSO to 0.1% of DMSO, and the cells were cultured for 7 days. After the cultivation, the cell viability was calculated with PrestoBlue™ Cell Viability Reagent (Invitrogen, A13261).

[1] = biological target: Menin-MLL binding (His-Menin1-615, MLL1-172-FLAG) (Homo sapiens (Human), UniProt O00255); test: Test 1: inhibition of the Menin-MLL binding (HTRF); details: summary of Test 1 table
Description: Test 1: Test for Evaluating the Inbinition of the Menin-MLL Binding
After the incubation, the signal was detected with RUBYstar (BMG LABTECH).

[2] = biological target: hERG (human Ether-a-go-go Related Gene) (Homo sapiens (Human), UniProt Q12809); test: Test 4: hERG inhibition (QPatch HT); details: for IC50: read-out: hERG inhibition IC50, CHO cell strain stably expressing hERG; for gap between RS4; 11 proliferation IC50 and hERG current IC50: summary of Test 4 table; for hERG/RS4; 11: hERG IC50 divided by RS4, 11 proliferation IC50
[3] = tested on: HOXA9 mRNA in MV4; 11 cells; test: Test 3: inhibition of mRNA transcription, HOXA9; assay type: cell-based; details: 20 to 24 hours, fitted with GAPDH
Description: (§2) Test 3: Test for the Inhibition of mRNA Transcription with Test Compounds
(§3) MV4; 11 cells were obtained from American Type Culture Collection (ATCC). […] After the incubation, the total RNA was extracted from the cells with RNeasy™ Mini Kit (QIAGEN, 74106), and cDNA was synthesized with Superscript™ VILO™ cDNA Synthesis Kit (Invitrogen, #11754250). By using TaqMan™ Gene Expression Master Mix (Applied Biosystems, 4369016) and TaqMan™ probe (Applied Biosystems), the expression level of mRNA was quantified from the obtained cDNA with 7900HT (Applied Biosystems). The expression level of each obtained gene (MEIS1 and HOXA9) was fitted with the expression level of mRNA of GAPDH.

[4] = tested on: MEIS1 mRNA in MV4; 11 cells; test: Test 3: inhibition of mRNA transcription, MEIS1; assay type: cell-based; details: for mRNA transcription inhibition activity (in words): MEIS1 and HOXA9, MV4, summary of Test 3
Description: as §2, §3

MOLM-13 cells = test: Test 2: inhibition of cell proliferation, MOLM-13; assay type: cell-based; details: cultured 7 days, PrestoBlue
Description: as §1

Chain of hERG (human Ether-a-go-go Related Gene) (Q12809 whole entry): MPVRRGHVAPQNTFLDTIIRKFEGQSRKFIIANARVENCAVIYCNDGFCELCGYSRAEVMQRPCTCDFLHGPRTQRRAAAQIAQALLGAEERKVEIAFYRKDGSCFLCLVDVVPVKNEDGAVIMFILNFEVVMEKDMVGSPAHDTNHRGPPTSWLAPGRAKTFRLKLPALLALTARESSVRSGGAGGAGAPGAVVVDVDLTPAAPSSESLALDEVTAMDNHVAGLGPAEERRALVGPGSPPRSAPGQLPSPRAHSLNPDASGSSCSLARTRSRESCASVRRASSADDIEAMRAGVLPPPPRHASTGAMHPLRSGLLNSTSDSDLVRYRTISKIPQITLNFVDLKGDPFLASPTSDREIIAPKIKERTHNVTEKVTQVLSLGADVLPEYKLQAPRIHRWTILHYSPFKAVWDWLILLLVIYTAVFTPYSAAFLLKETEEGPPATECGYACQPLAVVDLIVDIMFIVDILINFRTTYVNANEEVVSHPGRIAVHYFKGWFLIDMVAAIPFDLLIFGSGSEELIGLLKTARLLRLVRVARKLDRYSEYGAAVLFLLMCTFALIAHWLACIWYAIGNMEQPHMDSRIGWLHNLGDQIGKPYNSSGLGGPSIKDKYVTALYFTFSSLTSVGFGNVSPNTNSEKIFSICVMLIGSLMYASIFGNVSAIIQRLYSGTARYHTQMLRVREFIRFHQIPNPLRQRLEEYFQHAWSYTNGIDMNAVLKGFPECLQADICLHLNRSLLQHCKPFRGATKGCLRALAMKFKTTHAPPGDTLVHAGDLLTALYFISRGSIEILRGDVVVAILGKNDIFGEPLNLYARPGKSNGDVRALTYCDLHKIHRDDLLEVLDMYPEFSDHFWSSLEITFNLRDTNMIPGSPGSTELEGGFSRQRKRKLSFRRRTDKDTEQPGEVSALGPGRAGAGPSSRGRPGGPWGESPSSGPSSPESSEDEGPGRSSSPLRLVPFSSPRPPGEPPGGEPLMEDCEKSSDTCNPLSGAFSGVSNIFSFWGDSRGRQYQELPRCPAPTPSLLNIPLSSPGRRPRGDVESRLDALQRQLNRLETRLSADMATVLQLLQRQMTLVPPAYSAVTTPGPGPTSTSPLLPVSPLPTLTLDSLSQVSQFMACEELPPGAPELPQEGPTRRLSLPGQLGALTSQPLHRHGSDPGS
Chain of Menin-MLL binding (His-Menin1-615, MLL1-172-FLAG) (O00255 other isoform, or with tags, fused parts or gaps): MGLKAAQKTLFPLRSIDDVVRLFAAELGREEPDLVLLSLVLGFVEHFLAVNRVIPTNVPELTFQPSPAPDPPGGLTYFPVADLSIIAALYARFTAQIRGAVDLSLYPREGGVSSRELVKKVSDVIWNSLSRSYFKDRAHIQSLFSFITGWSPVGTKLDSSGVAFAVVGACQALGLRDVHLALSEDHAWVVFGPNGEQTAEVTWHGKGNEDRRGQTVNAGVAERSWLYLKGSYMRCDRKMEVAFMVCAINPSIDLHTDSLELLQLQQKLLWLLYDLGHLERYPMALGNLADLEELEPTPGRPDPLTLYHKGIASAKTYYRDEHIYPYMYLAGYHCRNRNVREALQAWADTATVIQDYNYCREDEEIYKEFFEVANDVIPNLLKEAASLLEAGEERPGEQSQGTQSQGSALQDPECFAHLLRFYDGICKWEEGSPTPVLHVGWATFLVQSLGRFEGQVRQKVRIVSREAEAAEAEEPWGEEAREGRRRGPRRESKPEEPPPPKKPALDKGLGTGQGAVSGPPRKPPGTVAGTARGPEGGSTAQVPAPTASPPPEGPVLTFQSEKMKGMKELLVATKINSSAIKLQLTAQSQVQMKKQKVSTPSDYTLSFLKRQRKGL

| Molecule | cell proliferation inhibition activity (in words) (RS4; 11 cells) | Menin-MLL binding inhibition activity (in words) [1] | gap between RS4; 11 proliferation IC50 and hERG current IC50 [2] | mRNA transcription inhibition activity (in words) [4] | other results |
| --- | --- | --- | --- | --- | --- |
| 2-[(4-{6-[(1R,3S,4R)-2-azabicyclo[2.2.2]octane-3-carbonyl]-2,6-diazaspiro[3.3]heptan-2-yl}pyrimidin-5-yl)oxy]-5-fluoro-N,N-di(propan-2-yl)benzamide [Example 11] | potent | potent | more than 100 fold | showed the mRNA transcription inhibition activity | IC50 [2]: > 10000 nM; mRNA at 1 μM (% control) HOXA9 [3]: 36.5 % control; mRNA at 1 μM (% control) MEIS1 ([4]; MV4, 1 μM, 20 to 24 hours, fitted with GAPDH): 13.1 % control |
| 2-[(4-{6-[(1R,3S,4S)-2-azabicyclo[2.2.1]heptane-3-carbonyl]-2,6-diazaspiro[3.3]heptan-2-yl}pyrimidin-5-yl)oxy]-5-fluoro-N,N-di(propan-2-yl)benzamide [Example 15] | potent | – | – | – | IC50 [2]: > 100000 nM |
| 2-[(4-{7-[(1R,3S,4S)-2-azabicyclo[2.2.1]heptane-3-carbonyl]-2,7-diazaspiro[3.5]nonan-2-yl}pyrimidin-5-yl)oxy]-5-fluoro-N,N-di(propan-2-yl)benzamide [Example 16] | potent | – | – | – | IC50 [2]: > 100000 nM; IC50 (MOLM-13 cells): 40 nM |
| 5-fluoro-2-[(4-{7-[(1S,3S,4R)-5-methylidene-2-azabicyclo[2.2.1]heptane-3-carbonyl]-2,7-diazaspiro[3.5]nonan-2-yl}pyrimidin-5-yl)oxy]-N,N-di(propan-2-yl)benzamide [Example 18] | potent | – | – | – | IC50 [2]: 46100 nM; IC50 (MOLM-13 cells): 40 nM |
| CC(C)N(C(=O)c1cc(F)ccc1Oc1cncnc1N1CC2(CCN(C(=O)[C@H]3N[C@H]4CC[C@@H]3C[C@@H]4CC3CC3)CC2)C1)C(C)C [Example 1, 2-[(4-{7-[(1S,3S,4R,6S)-6-(Cyclopropylmethyl)-2-azabicyclo[2.2.2]octane-3-carbonyl]-2,7-diazaspiro[3.5]nonan-2-yl}pyrimidin-5-yl)oxy]-5-fluoro-N,N-di(propan-2-yl)benzamide] | potent | potent | more than 100 fold | showed the mRNA transcription inhibition activity | – |
| CC(C)N(C(=O)c1cc(F)ccc1Oc1cncnc1N1CC2(CN(C(=O)[C@H]3N[C@H]4CC[C@@H]3C[C@@H]4CC3CC3)C2)C1)C(C)C [Example 3, 2-[(4-{6-[(1S,3S,4R,6S)-6-(cyclopropylmethyl)-2-azabicyclo[2.2.2]octane-3-carbonyl]-2,6-diazaspiro[3.3]heptan-2-yl}pyrimidin-5-yl)oxy]-5-fluoro-N,N-di(propan-2-yl)benzamide] | potent | particularly potent | more than 100 fold | showed the mRNA transcription inhibition activity | – |
| CC(C)N(C(=O)c1cc(F)ccc1Oc1cncnc1N1CC2(CCN(C(=O)[C@H]3N[C@H]4CC[C@@H]3C[C@H]4CC3CC3)CC2)C1)C(C)C [Example 4, 2-[(4-{7-[(1S,3S,4R,6R)-6-(cyclopropylmethyl)-2-azabicyclo[2.2.2]octane-3-carbonyl]-2,7-diazaspiro[3.5]nonan-2-yl}pyrimidin-5-yl)oxy]-5-fluoro-N,N-di(propan-2-yl)benzamide] | potent | potent | more than 100 fold | showed the mRNA transcription inhibition activity | – |
| CC(C)N(C(=O)c1cc(F)ccc1Oc1cncnc1N1CC2(CN(C(=O)[C@H]3N[C@H]4CC[C@@H]3C[C@H]4CC3CC3)C2)C1)C(C)C [Example 5, 2-[(4-{6-[(1S,3S,4R,6R)-6-(cyclopropylmethyl)-2-azabicyclo[2.2.2]octane-3-carbonyl]-2,6-diazaspiro[3.3]heptan-2-yl}pyrimidin-5-yl)oxy]-5-fluoro-N,N-di(propan-2-yl)benzamide] | potent; also recorded: excellent | potent | more than 100 fold | showed the mRNA transcription inhibition activity | – |
| C=C1C[C@@H]2CC[C@H]1[C@@H](C(=O)N1CCC3(CC1)CN(c1ncncc1Oc1ccc(F)cc1C(=O)N(C(C)C)C(C)C)C3)N2 [Example 6, 5-Fluoro-2-[(4-{7-[(1S,3S,4R)-5-methylidene-2-azabicyclo[2.2.2]octane-3-carbonyl]-2,7-diazaspiro[3.5]nonan-2-yl}pyrimidin-5-yl)oxy]-N,N-di(propan-2-yl)benzamide] | – | – | – | showed the mRNA transcription inhibition activity | – |
| C=C1C[C@H]2CC[C@@H]1N[C@@H]2C(=O)N1CCC2(CC1)CN(c1ncncc1Oc1ccc(F)cc1C(=O)N(C(C)C)C(C)C)C2 [Example 8, 5-fluoro-2-[(4-{7-[(1S,3S,4R)-6-methylidene-2-azabicyclo[2.2.2]octane-3-carbonyl]-2,7-diazaspiro[3.5]nonan-2-yl}pyrimidin-5-yl)oxy]-N,N-di(propan-2-yl)benzamide] | – | – | more than 100 fold | – | – |
| C=C1C[C@H]2CC[C@@H]1N[C@@H]2C(=O)N1CC2(C1)CN(c1ncncc1Oc1ccc(F)cc1C(=O)N(C(C)C)C(C)C)C2 [Example 9, 5-fluoro-2-[(4-{6-[(1S,3S,4R)-6-methylidene-2-azabicyclo[2.2.2]octane-3-carbonyl]-2,6-diazaspiro[3.3]heptan-2-yl}pyrimidin-5-yl)oxy]-N,N-di(propan-2-yl)benzamide] | – | – | more than 100 fold | – | – |
| CC(C)N(C(=O)c1cc(F)ccc1Oc1cncnc1N1CC2(CN(C(=O)[C@H]3N[C@H]4CC[C@@H]3[C@@H](F)C4)C2)C1)C(C)C [Example 10, 5-fluoro-2-[(4-{6-[(1S,3S,4S,5S)-5-fluoro-2-azabicyclo[2.2.2]octane-3-carbonyl]-2,6-diazaspiro[3.3]heptan-2-yl}pyrimidin-5-yl)oxy]-N,N-di(propan-2-yl)benzamide] | potent | particularly potent | more than 100 fold | showed the mRNA transcription inhibition activity | – |
| CC(C)N(C(=O)c1cc(F)ccc1Oc1cncnc1N1CC2(CCN(C(=O)[C@H]3N[C@H]4CC[C@@H]3C(=O)C4)CC2)C1)C(C)C [Example 12, 5-fluoro-2-[(4-{7-[(1S,3S,4S)-5-oxo-2-azabicyclo[2.2.2]octane-3-carbonyl]-2,7-diazaspiro[3.5]nonan-2-yl}pyrimidin-5-yl)oxy]-N,N-di(propan-2-yl)benzamide] | – | – | more than 100 fold | – | – |
| CC(C)N(C(=O)c1cc(F)ccc1Oc1cncnc1N1CC2(CCN(C(=O)[C@H]3N[C@H]4CC[C@@H]3[C@@H](F)[C@H]4CC3CC3)CC2)C1)C(C)C [Example 14, 2-[(4-{7-[(1S,3S,4S,5S,6S)-6-(cyclopropylmethyl)-5-fluoro-2-azabicyclo[2.2.2]octane-3-carbonyl]-2,7-diazaspiro[3.5]nonan-2-yl}pyrimidin-5-yl)oxy]-5-fluoro-N,N-di(propan-2-yl)benzamide] | potent | – | more than 100 fold | – | IC50 (RS4; 11 cells; Homo sapiens, RS4, 11 cells, cultured 7 days, PrestoBlue): 20 nM; hERG/RS4; 11 [2]: 557; IC50 (MOLM-13 cells; Homo sapiens): 40 nM |
| CC(C)N(C(=O)c1cc(F)ccc1Oc1cncnc1N1CC2(CCN(C(=O)[C@H]3N[C@H]4CC[C@@H]3[C@H](F)[C@@H]4CC3CC3)CC2)C1)C(C)C [Example 19, 2-[(4-{7-[(1S,3S,4S,5R,6R)-6-(cyclopropylmethyl)-5-fluoro-2-azabicyclo[2.2.2]octane-3-carbonyl]-2,7-diazaspiro[3.5]nonan-2-yl}pyrimidin-5-yl)oxy]-5-fluoro-N,N-di(propan-2-yl)benzamide] | potent | – | more than 100 fold | – | hERG/RS4; 11 [2]: >690 |
